Results: article PMC11761369 (bioRxiv, 2025)

Tests used:
[1] = system: clathrin-mediated endocytosis; assay: Microscopy of AA3H entry with inhibition of clathrin-mediated endocytosis; assay type: cell-based; conditions: Pitstop2 40 μM
[2] = system: BBB cells; assay: UPLC-MS of PepTGN and analogs after incubation with BBB cells; assay type: cell-based; conditions: UPLC-MS (Figure 6C)
[3] = system: bEND.3 cell line; assay: μMap profiling of PepTGN intracellular interactors; assay type: cell-based, mouse; conditions: 37 °C, 1 h incubation
[4] = assay type: cell-based; conditions: after 30 minutes incubation; overlaying with ER-marker (ERp57/ERp60 antibody)
[5] = molecular target: CALCRL (Homo sapiens, UniProt O60894+Q16602); assay: Flow cytometry of FITC-labeled PepTGN internalization with blocking agents; assay type: cell-based; conditions: compared to non-binding isotype control
Chain of CALCRL (Q16602 23-461): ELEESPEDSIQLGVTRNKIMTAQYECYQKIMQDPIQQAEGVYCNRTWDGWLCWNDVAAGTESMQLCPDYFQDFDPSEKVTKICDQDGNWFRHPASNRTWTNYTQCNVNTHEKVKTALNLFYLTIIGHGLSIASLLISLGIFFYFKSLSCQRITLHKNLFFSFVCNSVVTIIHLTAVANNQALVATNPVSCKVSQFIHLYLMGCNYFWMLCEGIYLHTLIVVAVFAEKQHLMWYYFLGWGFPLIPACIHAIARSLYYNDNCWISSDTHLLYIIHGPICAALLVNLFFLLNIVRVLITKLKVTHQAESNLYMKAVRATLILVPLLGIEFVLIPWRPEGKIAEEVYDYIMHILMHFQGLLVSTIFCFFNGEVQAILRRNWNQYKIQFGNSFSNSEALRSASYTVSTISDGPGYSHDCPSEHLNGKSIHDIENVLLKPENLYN
Chain of CALCRL (O60894 27-148): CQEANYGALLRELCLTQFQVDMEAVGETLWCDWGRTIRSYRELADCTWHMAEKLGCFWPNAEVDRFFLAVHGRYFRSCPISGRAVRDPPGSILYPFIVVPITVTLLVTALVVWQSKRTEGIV

O=C1NC(=NS(=O)(=O)c2cccc3ccccc23)S/C1=C\c1ccc(Br)cc1 [Pitstop2]
effect on AA3H internalization [1]: disrupted

AGNYKALHPHNG [T12A analog]
+322 mass shift after incubation with BBB cells [2]: did not display

TGNYKALHPHNG [PepTGN]
interactor genes associated to ER and Golgi trafficking and secretory pathways [3]: about 30% | cellular localization [4]: distinct puncta

B1: Erenumab: monoclonal antibody used in migraine therapy that targets CALCRL and inhibits CGRP binding (antibody, chains of the INN, looked up, V domains shown)
VH: QVQLVESGGGVVQPGRSLRLSCAASGFTFSSFGMHWVRQAPGKGLEWVAVISFDGSIKYSVDSVKGRFTISRDNSKNTLFLQMNSLRAEDTAVYYCARDRLNYYDSSGYYHYKYYGMAVWGQGTTVTVSS
VL: QSVLTQPPSVSAAPGQKVTISCSGSSSNIGNNYVSWYQQLPGTAPKLLIYDNNKRPSGIPDRFSGSKSGTSTTLGITGLQTGDEADYYCGTWDSRLSAVVFGGGTKLTVL
effect of pre-incubation on PepTGN internalization [5]: significantly decreased
